Test results: patent US20260219274A1, “POLYOL SWEETNERS AND CARDIOVASCULAR AND THROMBOTIC EVENT RISK” (THE CLEVELAND CLINIC FOUNDATION, priority 2023, published 2026)

Legend:
[1] = system: stable subjects undergoing elective diagnostic cardiac evaluations (Discovery Cohort); conditions: in vivo
Text: Our first study employed a Discovery Cohort, where we used untargeted metabolomics (semi-quantitative analyses) to analyze plasma samples from 1,157 stable subjects to identify circulating analytes whose levels were associated with future development of adverse cardiovascular events over an ensuing 3 year period. The Discovery Cohort included sequential stable patients (ages 18 years or above) undergoing elective diagnostic coronary angiography for risk evaluation at a quaternary referral center between 2001 and 2007 (GeneBank at the Cleveland Clinic; clinicaltrials.gov identifier: NCT00590200) with clinical and longitudinal outcomes.
In both, the Discovery and Validation Cohorts, Major Adverse Cardiovascular Events (MACE) were defined as death, nonfatal myocardial infarction, or nonfatal cerebrovascular accident (stroke) during follow-up. Adjudicated long term survival data were collected through medical records review and Social Security Death Index query. Cardiovascular disease (CVD) was indicated as presence of peripheral artery disease or coronary artery disease, indicated as any clinical history of myocardial infarction, coronary revascularization (including percutaneous coronary intervention, coronary artery bypass surgery), or angiographic evidence of significant stenosis (≥50%) in 1 or more major coronary arteries. Estimated glomerular filtration rate (eGFR) in both cohorts was calculated based on the recent Chronic Kidney Disease Epidemiology Collaboration 2021 CKD-EPI Creatinine equation.^37 Platelet-related hematology analyses were performed with an Advia 120 hematology analyzer (Siemens, New York, NY).^38 Use of anti-platelet agents (=1556) was defined as either aspirin or a P2Y12 agent or both. All observational studies in this example are reported in compliance with the STrengthening the Reporting of Observational studies in Epidemiology (STROBE)-Statement.^39 Information on gender of study participants of the Discovery and Validation Cohorts is reported in Table 1-3.
For untargeted mass spectrometry analyses, subject plasma samples were derivatized and run on GC-MS analyses as previously described.^19 Raw data files were processed using the metabolomics BinBase database.^45
Continuous variables are summarized as median (interquartile range [IQR]), and categorical variables are presented as %. Difference between groups (e.g. tertiles or quartiles) were examined using Kruskal Wallis test for continuous variables and chisq (χ^2) test for categorical variables. Kaplan-Meier analysis with Cox proportional-hazards regression was used for time-to-event analysis to determine hazard ratios (HR) and 95% confidence intervals (CI) for incident MACE. Adjustments included traditional cardiovascular risk factors (age, sex, diabetes mellitus, systolic blood pressure, low-density lipoprotein cholesterol levels, high-density lipoprotein cholesterol levels, triglyceride levels, smoking status) and high-sensitivity C-reactive protein (hsCRP). We confirmed that the proportionality hazards assumptions were met using the Schoenfeld residuals against the transformed time. Mann-Whitney U-test or Wilcoxon matched-pairs signed rank test were applied to continuous variables to examine differences between 2 groups. Kruskal-Wallis test with Dunn's post hoc test was used for pairwise multiple comparisons of ranked data. Two-way ANOVA with Šidák's multiple comparison post hoc test was used for multiple-group comparisons of aggregometry responses using different concentrations of agonists. For analysis of collagen-dependent platelet adhesion in whole blood, a two-way repeated measures ANOVA with Sidák's multiple comparison post hoc test was used. All reported measurements represent distinct samples. Data analyses were performed with R software (version 4.0.2) and GraphPad Prism software (version 9.1.2). A two-sided P<0.05 was considered statistically significant. […]

[2] = system: human platelet-rich plasma; experiment: Aggregometry in platelet-rich plasma; assay type: cell-based; conditions: PRP incubated with the polyol versus vehicle, submaximal agonist
Description: Aggregometry in platelet rich plasma (PRP) was performed as previously described^40 and outlined in supplemental methods.
Platelet rich plasma (PRP) was isolated as previously described.^5 Whole blood was drawn from healthy donors and anticoagulated with sodium citrate (0.109 M). PRP was prepared by centrifuging at 100×g for 10 min at 22° C. Platelet poor plasma (PPP) was obtained by additional centrifugation of the remaining blood samples at 11,000×g for 2 min. Next, platelets were counted with a hemocytometer and the platelet concentration adjusted to 2×10^8/mL using PPP. PRPs were then pre-incubated with xylitol (Catalogue #X3375-5G, Sigma, St. Louis, MO, USA) at indicated concentrations or vehicle (saline) for 30 min at 22° C. After exposure to xylitol or vehicle, PRPs were maintained in suspension with constant stirring (600 rpm) at 37° C. Subsequently, platelet aggregation was induced by adding the agonists ADP (up to 5 μM, Catalogue #384, Chronolog, Havertown, PA, US) or TRAP6 (TFLLR-NH2, up to 10 μM, Catalogue #464, Tocris, Bristol, UK). For all platelet aggregometry experiments, blood was always processed within approx. 30 minutes of collection, and isolated platelets were used within 120 minutes of isolation. When used, pairs of vehicle vs. xylitol incubated PRP were always incubated and analyzed together (beginning, middle, end of platelet prep use) and after 120 minutes post isolation, PRPs were not used anymore.
Platelet rich plasma (PRP) and platelet poor plasma (PPP) was prepared as previously described with sodium citrate (0.109 M) as anticoagulant^51. Platelets were counted and concentrations adjusted to 2×10^8/mL with PPP. PRPs were pre-incubated with erythritol (Catalogue #E7500, Sigma, St. Louis, MO, USA), glucose (Catalogue #G7021, Sigma, St. Louis, MO, USA) or 1,5-AHG (Catalogue #29874, Cayman Chemical, Ann Arbor, Michigan, USA) (at indicated concentrations) or vehicle (saline) for 30 min at 22° C. After pre-incubation PRPs were maintained in suspension with constant stirring (600 rpm) at 37° C. and platelet aggregation was initiated using ADP (up to 5 μM, Catalogue #384, Chronolog, Havertown, PA, US) or TRAP6 (TFLLR-NH2, up to […], Catalogue #464, Tocris, Bristol, UK).

[3] = system: platelets of healthy volunteers; experiment: Erythritol or glucose ingestion: platelet aggregation and granule release; assay type: in vivo, human
Description: (§1) This single center trial was approved by the Cleveland Clinic Institutional Review Board (clinicaltrials.gov identifier NCT04731363). Following subject consent (nonsmokers without CVD, hypertension, or diabetes), blood was drawn after overnight fast and 30 min following consumption of water containing 30 g of […] glucose (n=10, 30.1±11 years of age, 40% male), or erythritol (n=10, 30.5±8 years of age, 50% male), a quantity commonly found in erythritol-sweetened foods and the daily intake of some subjects based on 2013-2014 National Health and Nutrition Examination Survey (NHANES) data and FDA filings.(4,5).
(§2) Following erythritol consumption, postprandial circulating erythritol levels (assessed using stable-isotope-dilution liquid-chromatography tandem mass spectrometry (LC/MS/MS)3) were >1000-fold increased compared to baseline levels (median[inter quartile range], 6480[5930-7300]μM versus 3.75[3.35-3.87]μM, P<0.0001). In contrast, circulating erythritol levels remained similar before versus after glucose consumption (3.0[2.6-4.0]μM versus 2.9[2.7-3.8]μM, P=0.87; glucose levels before versus after 86.5(81.8-93.0) versus 127.0(122.3-132.3), P=0.002). […] In contrast, glucose consumption had no effect on platelet aggregation.

clinical = conditions: both, human, in vivo
Description: as §1, §2

| glucose levels (clinical) | glucose levels (clinical; 30 min) | SMILES | association with cardiovascular event risks / MACE [1] | stimulus-dependent platelet aggregation response to ADP and TRAP6 [2] | platelet aggregation responses to ADP and TRAP6 after ingestion ([3]; 30 min after 30 g vs baseline) | stimulus-dependent release of alpha granule marker CXCL4 ([3]; TRAP6 (7.5 μM), ADP (2.0 μM), after ingestion) | stimulus-dependent release of dense granule marker serotonin ([3]; TRAP6 and ADP, after ingestion) |
| --- | --- | --- | --- | --- | --- | --- | --- |
| – | – | OC[C@H]1OC[C@H](O)[C@@H](O)[C@@H]1O [1,5-AHG, 1,5-anhydroglucitol, reference compound] | negatively associated | no effect | – | – | – |
| 86.5(81.8-93.0) | 127.0(122.3-132.3) | O=C[C@H](O)[C@@H](O)[C@H](O)[C@H](O)CO [glucose, reference compound] | – | no effect | no effect | no differences | no differences |
